Four compounds from patent US8551937B2, “Peptide having an extending action for half-life of object peptide in plasma” (priority 2008, dated 2013) can be followed below.

Broadly, the AUC(0-inf) is total exposure, with the tail of the curve extrapolated. Low readings indicate low exposure, high ones high exposure. What is called half-life is how long it takes for the measured level to halve. A lower half-life goes with rapid decline. By Cmax is commonly meant the highest concentration seen after dosing. As a reminder, the Tmax is the time at which the peak concentration occurs.

SMILES strings stand for the structures. Where a SMILES comes first, the peptide text is derived from it. Bridges are numbered along the chain shown (N, C = ends).

This data set in a line: in vivo. Conditions: rat; for AUC(0-inf) / C0 / half-life / Cmax / Tmax: male, SD, 0.1 mg/kg. As to the method: Changes in ANP immunoreactivity concentration in plasma when a native ANP and a chimeric peptide (chimeric ANP) to which a half-life-extension peptide was bestowed were administered into vein of rats were investigated.
As a test system, male rats of an SD strain of 7 weeks age (provided from Nippon Charles River) were subjected to the experiment where one group comprised three rats. […] At that time, a rabbit polyclonal antibody (#8) recognizing a ring part of ANP was used as an antibody and ^125I-[Tyr^28] α-hANP was used as a labeling compound.
Pharmacokinetic parameters were calculated from the resulting changes in immunoreactivity concentrations in plasma. At that time, WinNonlin Professional Ver. 4.0.1 (manufactured by Pharsight Corporation, U.S.A.) was used as the analytical software. Method for the calculation of each parameter is mentioned as follows.
Concentration at time 0 (C0; extrapolated value, ng/mL), area under the curve for concentration in plasma vs. time (AUC; ng.min/mL) and quenching half-life (T½; minute(s)) were calculated as follows. C0 was calculated as a value at time by means of extrapolation from the changes in immunoreactivity concentration in plasma at each blood collection period. AUC was calculated by a trapezoidal method using the immunoreactivity concentrations in plasma at all measuring points (t) and an extrapolated value until the infinitive time was determined. T½ was calculated by means of a least-squares method from the inclination of a straight line connecting several points in a disappearing phase of the immunoreactivity concentration in plasma. In the case of a subcutaneous administration, C0 was not determined but the maximum concentration in plasma (Cmax; ng/mL) and the time reaching the maximum concentration in plasma (Tmax; min) were determined.

Take `CC[C@H](C)[C@@H]1NC(=O)[C@H](CCCNC(=N)N)NC(=O)[C@H](CC(=O)O)NC(=O)[C@H](CCSC)NC(=O)[C@H](CCCNC(=N)N)NC(=O)CNC(=O)CNC(=O)[C@H](Cc2ccccc2)NC(=O)[C@@H](N)CSSC[C@@H](C(=O)N[C@@H](CC(N)=O)C(=O)N[C@@H](CO)C(=O)N[C@@H](Cc2ccccc2)C(=O)N[C@@H](CCCNC(=N)N)C(=O)N[C@@H](Cc2ccc(O)cc2)C(=O)N[C@H](C(=O)N[C@@H](CCC(N)=O)C(=O)N[C@@H](CCC(N)=O)C(=O)N[C@@H](CCCNC(=N)N)C(=O)N[C@@H](CCCCN)C(=O)N[C@@H](CCC(=O)O)C(=O)N[C@@H](CO)C(=O)N[C@@H](CCCCN)C(=O)N[C@@H](CCCCN)C(=O)N2CCC[C@H]2C(=O)N2CCC[C@H]2C(=O)N[C@@H](C)C(=O)N[C@@H](CCCCN)C(=O)N[C@@H](CC(C)C)C(=O)N[C@@H](CCC(N)=O)C(=O)N2CCC[C@H]2C(=O)N[C@@H](CCCNC(=N)N)C(=O)O)C(C)C)NC(=O)CNC(=O)[C@H](CC(C)C)NC(=O)CNC(=O)[C@H](CO)NC(=O)[C@H](CCC(N)=O)NC(=O)[C@H](C)NC(=O)CNC1=O` [Chimeric ANP (A)] (H-CFGGRMDRIGAQSGLGCNSFRYVQQRKESKKPPAKLQPR-OH; disulfide 1-17; N-terminus and C-terminus assumed): under “iv”, the AUC(0-inf) was 196 ng·h/mL, the C0 was found to be 1240 ± 71 ng/mL, the half-life turned out to be 24 ± 2.5 min and the “concentration in plasma as compared with the native ANP” value is given as “rising concentration in plasma”. Besides, where the note is “sc”, the total exposure AUC(0-inf) is 34 ng·h/mL, the Cmax came to 63.3 ± 31.8 ng/mL, the time of peak concentration (Tmax) is 5 min and the half-life is 46.4 ± 8 min. Further, for the setting “sc”, the “concentration in plasma as compared with the native ANP” value is “rising concentration in plasma”.

Consider `CC[C@H](C)[C@@H]1NC(=O)[C@H](CCCNC(=N)N)NC(=O)[C@H](CC(=O)O)NC(=O)[C@H](CCSC)NC(=O)[C@H](CCCNC(=N)N)NC(=O)CNC(=O)CNC(=O)[C@H](Cc2ccccc2)NC(=O)[C@@H](NC(=O)[C@H](CCCNC(=N)N)NC(=O)[C@@H]2CCCN2C(=O)[C@H](CCC(N)=O)NC(=O)[C@H](CC(C)C)NC(=O)[C@H](CCCCN)NC(=O)[C@H](C)NC(=O)[C@@H]2CCCN2C(=O)[C@@H]2CCCN2C(=O)[C@H](CCCCN)NC(=O)[C@H](CCCCN)NC(=O)[C@H](CO)NC(=O)[C@H](CCC(=O)O)NC(=O)[C@H](CCCCN)NC(=O)[C@H](CCCNC(=N)N)NC(=O)[C@H](CCC(N)=O)NC(=O)[C@H](CCC(N)=O)NC(=O)[C@@H](N)C(C)C)CSSC[C@@H](C(=O)N[C@@H](CC(N)=O)C(=O)N[C@@H](CO)C(=O)N[C@@H](Cc2ccccc2)C(=O)N[C@@H](CCCNC(=N)N)C(=O)N[C@@H](Cc2ccc(O)cc2)C(=O)O)NC(=O)CNC(=O)[C@H](CC(C)C)NC(=O)CNC(=O)[C@H](CO)NC(=O)[C@H](CCC(N)=O)NC(=O)[C@H](C)NC(=O)CNC1=O` [Chimeric ANP (B)] (H-VQQRKESKKPPAKLQPRCFGGRMDRIGAQSGLGCNSFRY-OH; disulfide 18-34; N-terminus and C-terminus assumed), for which, where the note is “iv”, the total exposure AUC(0-inf) was 175 ng·h/mL, the C0 was determined as 1570 ± 361 ng/mL, the half-life turned out to be 40 ± 12.4 min and the “concentration in plasma as compared with the native ANP” value is given as “rising concentration in plasma”. Besides, for the setting “sc”, the AUC(0-inf) is 66.4 ng·h/mL, the Cmax worked out at 64.5 ± 40.7 ng/mL, the Tmax was 16.7 min and the half-life was 57.3 ± 7.1 min. Also, the “concentration in plasma as compared with the native ANP” value (sc) is on record as “rising concentration in plasma”.

As for `CC[C@H](C)[C@@H]1NC(=O)[C@H](CCCNC(=N)N)NC(=O)[C@H](CC(=O)O)NC(=O)[C@H](CCSC)NC(=O)[C@H](CCCNC(=N)N)NC(=O)CNC(=O)CNC(=O)[C@H](Cc2ccccc2)NC(=O)[C@@H](NC(=O)[C@@H](NC(=O)[C@H](CCC(N)=O)NC(=O)[C@H](CCC(N)=O)NC(=O)[C@H](CCCNC(=N)N)NC(=O)[C@H](CCCCN)NC(=O)[C@H](CCC(=O)O)NC(=O)[C@H](CO)NC(=O)[C@H](CCCCN)NC(=O)[C@H](CCCCN)NC(=O)[C@@H]2CCCN2C(=O)[C@@H]2CCCN2C(=O)[C@H](C)NC(=O)[C@H](CCCCN)NC(=O)[C@H](CC(C)C)NC(=O)[C@H](CCC(N)=O)NC(=O)[C@@H]2CCCN2C(=O)[C@@H](N)CCCNC(=N)N)C(C)C)CSSC[C@@H](C(=O)N[C@@H](CC(N)=O)C(=O)N[C@@H](CO)C(=O)N[C@@H](Cc2ccccc2)C(=O)N[C@@H](CCCNC(=N)N)C(=O)N[C@@H](Cc2ccc(O)cc2)C(=O)O)NC(=O)CNC(=O)[C@H](CC(C)C)NC(=O)CNC(=O)[C@H](CO)NC(=O)[C@H](CCC(N)=O)NC(=O)[C@H](C)NC(=O)CNC1=O` [Chimeric ANP (C)] (H-RPQLKAPPKKSEKRQQVCFGGRMDRIGAQSGLGCNSFRY-OH; disulfide 18-34; N-terminus and C-terminus assumed), under “iv”, the AUC(0-inf) is 148 ng·h/mL, the C0 was found to be 1530 ± 442 ng/mL, the half-life was found to be 27.2 ± 3.8 min and the “concentration in plasma as compared with the native ANP” value was “rising concentration in plasma”. In addition, for the setting “sc”, the AUC(0-inf) was 56.7 ng·h/mL, the Cmax came to 55.1 ± 10.3 ng/mL, the Tmax is 20 min and the half-life worked out at 37.8 ± 7.8 min. Besides, the “concentration in plasma as compared with the native ANP” value (sc) was “rising concentration in plasma”.

Where the note is “iv”, `CC[C@H](C)[C@@H]1NC(=O)[C@H](CCCNC(=N)N)NC(=O)[C@H](CC(=O)O)NC(=O)[C@H](CCSC)NC(=O)[C@H](CCCNC(=N)N)NC(=O)CNC(=O)CNC(=O)[C@H](Cc2ccccc2)NC(=O)[C@@H](NC(=O)[C@H](CO)NC(=O)[C@H](CO)NC(=O)[C@H](CCCNC(=N)N)NC(=O)[C@H](CCCNC(=N)N)NC(=O)[C@H](CC(C)C)NC(=O)[C@@H](N)CO)CSSC[C@@H](C(=O)N[C@@H](CC(N)=O)C(=O)N[C@@H](CO)C(=O)N[C@@H](Cc2ccccc2)C(=O)N[C@@H](CCCNC(=N)N)C(=O)N[C@@H](Cc2ccc(O)cc2)C(=O)O)NC(=O)CNC(=O)[C@H](CC(C)C)NC(=O)CNC(=O)[C@H](CO)NC(=O)[C@H](CCC(N)=O)NC(=O)[C@H](C)NC(=O)CNC1=O` [Native ANP, reference compound] showed an AUC(0-inf) of 25 ng·h/mL and a C0 of 993 ± 208 ng/mL. Where the note is “sc”, the AUC(0-inf) is 8.92 ng·h/mL, the Cmax amounted to 22.3 ± 5.3 ng/mL and the Tmax was 8.3 min.
